One series addresses T1, MKK4 (Homo sapiens, UniProt P45985).
T1 sequence (P45985 1-399): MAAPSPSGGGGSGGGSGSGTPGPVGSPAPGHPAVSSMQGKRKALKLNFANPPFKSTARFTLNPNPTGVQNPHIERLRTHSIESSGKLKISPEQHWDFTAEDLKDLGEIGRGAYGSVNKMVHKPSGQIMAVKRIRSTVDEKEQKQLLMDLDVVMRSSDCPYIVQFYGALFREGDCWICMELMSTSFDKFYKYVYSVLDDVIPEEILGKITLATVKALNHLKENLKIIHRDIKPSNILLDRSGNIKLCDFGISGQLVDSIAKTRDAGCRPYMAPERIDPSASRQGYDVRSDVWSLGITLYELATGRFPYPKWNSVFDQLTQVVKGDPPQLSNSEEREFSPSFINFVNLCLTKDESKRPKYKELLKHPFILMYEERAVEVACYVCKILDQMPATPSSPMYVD
Nature of the series: KINOMEscan kinase binding assay. As to conditions: for Kd for MKK4: KINOMEscan, data not shown.

Series [1] relates to nine tumor cell lines and primary PBMCs. Nature of the series: Cytotoxicity across the panel of nine tumor cell lines and PBMCs. In kind it is cell-based, human. As to conditions: 24 h; for IC50: Homo sapiens, PBMC, read-out: cytotoxic activity IC50 for most of the cell lines.
Series [2] deals with T2, human neutrophil elastase (HNE) (Homo sapiens, UniProt P08246).
T2 sequence (P08246 30-247 limits assumed): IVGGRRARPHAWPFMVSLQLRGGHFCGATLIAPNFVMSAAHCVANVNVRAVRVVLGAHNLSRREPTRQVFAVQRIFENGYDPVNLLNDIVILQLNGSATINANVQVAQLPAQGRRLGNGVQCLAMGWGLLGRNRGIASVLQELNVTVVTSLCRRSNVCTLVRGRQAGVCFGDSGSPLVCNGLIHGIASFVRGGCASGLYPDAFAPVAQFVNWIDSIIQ
Nature of the series: HNE inhibitory assay. It is filed as biochemical.

The target of the next series is T3, MKK7 (Homo sapiens, UniProt O14733).
T3 sequence (O14733 1-419): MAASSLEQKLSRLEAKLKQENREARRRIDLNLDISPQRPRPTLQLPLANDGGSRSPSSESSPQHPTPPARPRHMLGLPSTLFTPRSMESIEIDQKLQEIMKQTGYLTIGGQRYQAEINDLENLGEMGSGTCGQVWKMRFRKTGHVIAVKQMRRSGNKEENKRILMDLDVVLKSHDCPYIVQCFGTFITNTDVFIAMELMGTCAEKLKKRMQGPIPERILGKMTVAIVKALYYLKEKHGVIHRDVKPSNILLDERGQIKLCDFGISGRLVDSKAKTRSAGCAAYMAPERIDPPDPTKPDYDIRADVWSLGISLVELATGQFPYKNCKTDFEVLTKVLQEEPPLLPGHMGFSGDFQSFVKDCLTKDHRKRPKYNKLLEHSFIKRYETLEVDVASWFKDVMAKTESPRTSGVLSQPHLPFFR
Nature of the series: KINOMEscan kinase binding assay. As to conditions: for Kd (μM) vs MKK7: KINOMEscan, duplicate, maximum concentration 30 μM.

The target of a further series is T4, Cdc25A (Homo sapiens, UniProt P30304).
T4 sequence (P30304 1-524): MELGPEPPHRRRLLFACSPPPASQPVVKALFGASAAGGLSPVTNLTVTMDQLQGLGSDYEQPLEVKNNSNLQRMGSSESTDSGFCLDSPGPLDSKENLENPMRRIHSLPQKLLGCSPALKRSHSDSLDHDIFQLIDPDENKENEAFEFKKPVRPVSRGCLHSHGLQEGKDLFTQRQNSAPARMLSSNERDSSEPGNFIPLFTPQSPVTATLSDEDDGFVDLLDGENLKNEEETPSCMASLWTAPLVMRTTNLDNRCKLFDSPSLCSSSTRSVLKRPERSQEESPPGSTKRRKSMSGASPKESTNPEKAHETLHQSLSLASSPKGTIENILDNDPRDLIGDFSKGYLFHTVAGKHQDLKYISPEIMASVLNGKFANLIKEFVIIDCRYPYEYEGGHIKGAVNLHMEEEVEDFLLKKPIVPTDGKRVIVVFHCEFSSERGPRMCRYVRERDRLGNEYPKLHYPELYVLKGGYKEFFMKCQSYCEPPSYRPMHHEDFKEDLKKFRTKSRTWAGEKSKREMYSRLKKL
Nature of the series: CycLex Cdc25A fluorometric phosphatase inhibition assay. In kind it is biochemical.

For a further series, the target named is T5, Cdc25B (Homo sapiens, UniProt P30305).
T5 sequence (P30305 1-580): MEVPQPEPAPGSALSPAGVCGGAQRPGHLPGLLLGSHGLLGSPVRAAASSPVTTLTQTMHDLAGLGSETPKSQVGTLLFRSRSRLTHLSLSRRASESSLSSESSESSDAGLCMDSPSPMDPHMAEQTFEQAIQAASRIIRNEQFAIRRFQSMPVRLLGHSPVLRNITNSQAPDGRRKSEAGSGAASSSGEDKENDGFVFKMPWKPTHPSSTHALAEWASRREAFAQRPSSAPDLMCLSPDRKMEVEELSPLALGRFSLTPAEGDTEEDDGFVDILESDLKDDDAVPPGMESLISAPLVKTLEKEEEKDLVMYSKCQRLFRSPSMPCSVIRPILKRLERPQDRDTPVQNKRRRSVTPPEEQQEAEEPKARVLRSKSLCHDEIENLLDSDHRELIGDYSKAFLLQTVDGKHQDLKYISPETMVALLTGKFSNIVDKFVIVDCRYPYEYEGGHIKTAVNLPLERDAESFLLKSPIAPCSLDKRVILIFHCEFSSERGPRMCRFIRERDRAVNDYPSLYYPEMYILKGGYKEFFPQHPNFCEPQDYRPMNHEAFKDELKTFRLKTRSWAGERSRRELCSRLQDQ
Nature of the series: CycLex Cdc25B fluorometric phosphatase inhibition assay. It is filed as biochemical.

Results on 27 compounds are retold here after publication PMC6925601 (European journal of medicinal chemistry, 2019).

SMILES strings stand for the structures.

In the case of `CC(SC1=CC(=O)c2ccccc2C1=O)C(=O)O` (centres unmarked) [Compound 8], the “Kd for MKK4” value on MKK4 was “No MKK4 binding affinity”.

For `O=C(O)c1ccc(NC2=C(Cl)C(=O)c3ccccc3C2=O)cc1` [Compound 22f, 4-(3-Chloro-1,4-dioxo-1,4-dihydro-naphthalen-2-ylamino)-benzoic acid], the IC50 (in general, the concentration needed to halve the response being measured) is under 10 µM in series [1] and over 50 µM in series [2].

`O=C(O)CCSC1=CC(=O)c2ccccc2C1=O` [Compound 7, 3-[(1,4-dioxonaphthalen-2-yl)sulfanyl]propanoic acid]: the “fold more active than 6 (MKK7)” value on MKK7 (compared with compound 6) is reported as 6 fold. The “Kd for MKK4” value at MKK4 is “No MKK4 binding affinity”. In series [2], this compound came in with an IC50 of over 50 µM.

With `CC1=CC(=O)c2c(O)cccc2C1=O` [Compound 2, Plumbagin, reference compound], the IC50 was under 10 µM in series [1] and over 50 µM in series [2].

As to `COCCSC1=C(C)C(=O)c2ccccc2C1=O` [Compound 11], the IC50 in series [1] is under 10 µM; in series [2], over 50 µM.

As for `CC(C)(C)[C@H]1CC[C@H](CC2=C(O)C(=O)c3ccccc3C2=O)CC1` [Compound 21, buparvaquone, reference compound], the Kd (commonly the concentration at which binding is half-saturated) at MKK7 was over 30 µM. Further, at MKK7, the “Kd (μM) vs MKK7” value is “did not bind”. In addition, the IC50 (on Cdc25A; in series [2]) was over 50 µM each time.

For `CC(C)=CC[C@@H](O)C1=CC(=O)c2c(O)ccc(O)c2C1=O` [Compound 1, Shikonin], at MKK7, the Kd is over 30 µM and the “Kd (μM) vs MKK7” value was “did not bind”. Further, the IC50 in series [2] is over 50 µM.

In series [2], `O=C1C(O)=C(CN(CCCl)CCCl)C(=O)c2ccccc21` [Compound 19] had a concentration for half-maximal inhibition (IC50) of over 50 µM.

For `CC1=CC(=O)c2ccccc2C1=O` [Compound 18, menadione, reference compound], at MKK7, the Kd was over 30 µM and the “Kd (μM) vs MKK7” value is listed as “did not bind”. Further, the IC50 in series [1] was under 10 µM. Further, in series [2], the IC50 was over 50 µM.

Take `CSC1=C(SC)C(=O)c2ccccc2C1=O` [Compound 13]: the IC50 in series [1] is under 10 µM; in series [2], over 50 µM.

`CC1=C(SCCC(=O)O)C(=O)c2ccccc2C1=O` [Compound 9, vitamin ks-II, reference compound] returned an IC50 in series [2] of over 50 µM.

`O=C1C(Cl)=C(NCCCN2CCOCC2)C(=O)c2ccccc21` [Compound 24, 2-Chloro-3-(3-morpholin-4-yl-propylamino)-1,4-naphthoquinone]: the IC50 (on Cdc25A; against Cdc25B; in series [2]) was over 50 µM each time. On Cdc25A (recombinant Cdc25A, OMFP substrate, 25 °C), the “Cdc25A IC50 (μM)” value was “inactive”. Moreover, the “Cdc25B IC50 (μM)” value at Cdc25B (recombinant Cdc25B, OMFP substrate, 25 °C) is “inactive”.

As to `O=C1C(SCCO)=C(SCCO)C(=O)c2ccccc21` [Compound 4, 2,3-bis-[(2-hydroxyethyl)thio]-1,4-naphthoquinone, reference compound], the “Kd (μM) vs MKK7” value at MKK7 is on record as “in the micromolar range”. For the same compound, the “Kd for MKK4” value on MKK4 is recorded as “No MKK4 binding affinity”. Also, the IC50 in series [1] is under 10 µM; in series [2] it was over 50 µM.

In series [2], `COC1=CC(=O)c2ccccc2C1=O` [Compound 16] yielded an IC50 of over 50 µM.

For the compound `COC(=O)c1ccc(NC2=C(Cl)C(=O)c3ccccc3C2=O)cc1` [Compound 22g, 4-(3-Chloro-1,4-dioxo-1,4-dihydro-naphthalen-2-ylamino)-benzoic acid methyl ester], the IC50 in series [2] is over 50 µM.

Regarding `COC(=O)c1ccc(NC2=C(OC)C(=O)c3ccccc3C2=O)cc1` [Compound 25b, 4-(3-Methoxy-1,4-dioxo-1,4-dihydro-naphthalen-2-ylamino)-benzoic acid methyl ester], the IC50 (against Cdc25A; at Cdc25B; in series [2]) was over 50 µM throughout.

For `O=C1C(Cl)=C(NCCCO)C(=O)c2ccccc21` [Compound 23b, 2-Chloro-3-(3-hydroxy-propylamino)-1,4-naphthoquinone], the IC50 (at Cdc25B; in series [2]) was over 50 µM throughout.

Take `O=C(O)CCCNC1=C(Cl)C(=O)c2ccccc2C1=O` [Compound 22c, 4-(3-Chloro-1,4-dioxo-1,4-dihydro-naphthalen-2-ylamino)-butyric acid]: the IC50 in series [2] is over 50 µM.

Consider `CCSC1=C(C)C(=O)c2ccccc2C1=O` [Compound 10], for which the IC50 in series [1] was under 10 µM; in series [2] it was over 50 µM.

On MKK7, `COC(=O)c1ccc(NC2=C(N3CCCCC3)C(=O)c3ccccc3C2=O)cc1` [Compound 25a, 4-(1,4-Dioxo-3-piperidin-1-yl-1,4-dihydro-naphthalen-2-ylamino)-benzoic acid methyl ester] returned a Kd of over 30 µM. The compound further had an IC50 in series [2] of over 50 µM.

Consider `COC1=C(OC)C(=O)c2ccccc2C1=O` [Compound 15], for which the “Kd (μM) vs MKK7” value on MKK7 was “almost complete loss of binding affinity”. Besides, in series [2], the IC50 is over 50 µM.

Turning to `O=C(O)CNC1=C(Cl)C(=O)c2ccccc2C1=O` [Compound 22a, (3-Chloro-1,4-dioxo-1,4-dihydro-naphthalen-2-ylamino)-acetic acid], the half-maximal inhibitory concentration (IC50) (against Cdc25B; in series [2]) was over 50 µM each time.

On MKK7, `CC1=C(SCCO)C(=O)c2ccccc2C1=O` [Compound 5, reference compound] yielded a Kd of over 30 µM. Besides, in series [2], the IC50 was over 50 µM.

On to `O=C(O)c1cccc(NC2=C(Cl)C(=O)c3ccccc3C2=O)c1` [Compound 22e, 3-(3-Chloro-1,4-dioxo-1,4-dihydro-naphthalen-2-ylamino)-benzoic acid], for which the “Kd for MKK4” value on MKK4 was “No MKK4 binding affinity”. Further, the IC50 was under 10 µM in series [1] and over 50 µM in series [2].

Consider `O=C1C(Cl)=C(NCCO)C(=O)c2ccccc21` [Compound 23a, 2-Chloro-3-(2-hydroxy-ethylamino)-1,4-naphthoquinone], for which the IC50 (at Cdc25B; in series [2]) was over 50 µM in each case.

Regarding `O=C(O)CSC1=CC(=O)c2ccccc2C1=O` [Compound 6], the dissociation constant Kd on MKK4 is 19.5 ± 0.7 µM. For the same compound, in series [1] (up to 50 μM), the “cytotoxicity toward tumor cell lines and PBMCs (in words)” value is “weakly active or inactive”. In series [2], this compound yielded an IC50 of over 50 µM.

As to `CC1=C(SC(C)C)C(=O)c2ccccc2C1=O` [Compound 12], the IC50 in series [1] was under 10 µM; in series [2], over 50 µM.
